The record followed here is patent US8012993B2, “Stable S-nitrosothiols, method of synthesis and use” (Lacer, S.A., priority 2006, dated 2011).

Data set [1] relates to systemic blood pressure. Nature of the data set: Effect of nitrosothiols on systemic blood pressure. The class given is in vivo, male Wistar rats. The following applies: for Mean arterial pressure, Basal: before initiation of the treatment. Here is the method: Fasted male Wistar rats (300-320 g; Janvier, Le Genest St. Isle, France) were anesthetized with sodium pentobarbitone (60 mg/kg i.p.). The effect of treatments on systemic blood pressure was tested. Products dissolved in saline solution and were infused intravenously for 30 minutes at 0.5 ml/h. […] Basal blood pressure was measured before initiation of the treatment and was recorded throughout the treatment period using a pressure transducer connected to the carotid artery. The change in blood pressure was expressed as a % of change vs. basal values.

The test system of data set [2] is arterial thrombosis. The data set can be described thus: Rat arterial thrombosis model (ferric chloride, carotid artery). In kind it is in vivo, male Wistar rats. The settings on record: i.v. infusion for 30 minutes. Here is the method:
The activity of the products was assessed in experimental animals in accordance with the European Community Standards on the Care and Use of Laboratory Animals and approved by the Animal Care and Use Committee of local authorities. Two experimental models to test antithrombotic activity in rats were used: Arterio-Venous Shunt and Ferric chloride arterial thrombosis model. Additionally, the effect of the products on the systemic blood pressure was investigated. Fasted male Wistar rats (300-320 g; Janvier, Le Genest St. Isle, France) were anesthetized with sodium pentobarbital (60 mg/kg i.p.) and thermoregulated by use of blankets (Biosis homeothermic blanket control unit; Biosis, Spain). A segment (approximately 1-cm long) of the left carotid artery was exposed and fitted at the distal end with an appropriately sized Doppler flow probe. Thrombosis was induced by applying a 70% ferric chloride solution embedded patch onto the artery. Blood flow velocity was measured using a Doppler flowmeter (Transonic Systems, San Diego, Calif.) and data recorded using a system for acquisition of data (Acqk). Blood flow was recorded for 60 min post-lesion. When the flow declined to zero, the time in minutes to thrombus formation was noted. The protocol followed was originally described by Feuerstein G Z, et al Artherioscler. Thromb. Vasc. Biol. 1999, 19: 2554-2562 and modified by Kurz K D, et al Thromb. Res. 1990, 60:269-280. The number of animals presenting no occlusion 30 min post-lesion were also noted. Products were dissolved in saline and were given as an i.v. infusion for 30 minutes. ED50 for each product was calculated and results are shown in Table 1 • Anti-thrombotic effect of compounds compared with reference compound in rat arterial thrombosis model after i.v. administration for 30 minutes.

Data set [3] in a line: Stability study: storage in closed borosilicate glass vial, HPLC analysis. The class given is physicochemical.
The test system of data set [4] is thrombus in arterio-venous shunt. Nature of the data set: Rat arterio-venous shunt silk thread model. In kind it is in vivo, male Wistar rats. The settings on record: rat AV shunt, perfusion 60 minutes. Here is the method:
The activity of the products was assessed in experimental animals in accordance with the European Community Standards on the Care and Use of Laboratory Animals and approved by the Animal Care and Use Committee of local authorities. Two experimental models to test antithrombotic activity in rats were used: Arterio-Venous Shunt and Ferric chloride arterial thrombosis model. Additionally, the effect of the products on the systemic blood pressure was investigated. Fasted male Wistar rats (300-320 g; Janvier, Le Genest St. Isle, France) were anesthetized with sodium pentobarbitone (60 mg/kg i.p.). An arterio-venous (AV) shunt was prepared according to the technique of Umetsu and Sanai (1978). Two 12 cm-long polyethylene tubes (0.85- and 1.27-mm i.d. and o.d., respectively) linked to a central part (6 cm-long; 1.14-mm i.d.) containing a 5-cm cotton thread and filled with […]) saline solution were placed between the right carotid artery and the left jugular vein. All products were given i.v through the jugular vein for 60 minutes. Shunt was placed 45 minutes after the initiation of the perfusion with the testing substances and removed at the end of the perfusion i.e. after 15 min of blood circulation. Cotton thread supporting the thrombus was extracted.

For data set [5], the system named is intraocular pressure. Nature of the data set: Alfa-chymotrypsin-induced glaucoma, intraocular pressure. The following applies: glaucoma rabbits; for intraocular pressure, 0 hr / intraocular pressure, 1 hr / intraocular pressure, 2 hr: 3 drops instillation. In kind it is in vivo. The protocol:
The method used was that described by Gabriele Campana, Claudio Bucolo, Giovanna Murari and Santi Spampinato in Pharmacol. Exp Therap Vol. 303, Issue 3, 1086-1094, December 2002
Animals were injected with intra muscular injection of dexamethasone at the dose rate of 10 mg/Kg body weight, to avoid immediate inflammation. Animals were anesthetized with ketamine (50 mg/kg IV) in combination with Dizepam.
Xylocalne (4%) was used for local anesthesia topically. A cannula attached to reservoir was inserted into the anterior chamber with the help of a 30 gauge needle to provide a hydrostatic pressure of 25 mmHg during injection of alpha-chymotrypsin. Then a second appropriately shaped 30 gauge needle was introduced near the pupil. Freshly prepared 150 units of alpha chymotrypsin prepared in 0.1 ml of sterile saline was irrigated through the cannula into the posterior chamber. Care was taken to prevent the contact of alpha chymotrypsin with corneal stroma. Both cannulas were carefully removed without significant loss of aqueous humor. Immediately after surgery the eye treated with Sofracort (Corticosteroid) to reduce the chances of fungal or microbial infection.
All the animals were kept under observation for 5 days and after these five days the intraocular pressure (IOP) was measured daily with a Schiontz type indentation tonometer using 5.5 gm weights and by compilation of readings the maximum period required to achieve a stable increase in IOP was determined. […] IOP was measured after 15 days for 3 consecutive days, every morning (at same time) to assure stable IOP.
All the animals were closely observed for the development of glaucoma. Thirty animals showing the symptoms of glaucoma and with the intra ocular pressure more than 30 mmHg were selected for the present investigation.
Compound (R,S)-4-(Acetylamino-ethoxycarbonyl-methyl)-1-methyl-4-S-nitroso-mercapto-piperidinium chloride (example 1g) was administered to a group of rabbits at a concentration of 0.05% by weight [0.05 g in 100 mL of saline serum] by 3 drops instillation. For comparative data, the compound Timolol (Timoftol®) widely used for the treatment of glaucoma, was also administered to another group of rabbits at a concentration of 0.5% by weight.
The intraocular pressure measurements are included in the table 2 in mm Hg taken at 0, 1 and 2 h after 3 drops instillation.

The mark [6] stands for this setting: anesthetized rat, i.v. infusion 30 min, dose 100 times the antithrombotic ED50.
The mark [7] stands for this setting: change vs. basal after 30 min i.v. infusion, dose 100 times the antithrombotic ED50.
[8] abbreviates: at 4° C., closed glass vial, no longer stable when it loses more than 5% of initial purity (HPLC).
[9] abbreviates: at 25° C., closed glass vial, no longer stable when it loses more than 5% of initial purity (HPLC).

SMILES strings stand for the structures. Some results are limits rather than exact numbers.

Take `CCOC(=O)C(NC(C)=O)C1(SN=O)CCN(C)CC1.Cl` (racemic) [Example 1g, (R,S)-4-(Acetylamino-ethoxycarbonyl-methyl)-1-methyl-4-S-nitrosomercapto-piperidinium chloride]: in data set [1] (anesthetized rat), the “Mean arterial pressure, Basal” value is 115.7 ± 8.3 mm Hg. Further, the “Mean arterial pressure, After 30 min infusion” value in data set [1] (setting [6]) was found to be 113.6 ± 9.2 mm Hg. In addition, in data set [1] (setting [7]), the “Mean arterial pressure, Change” value is −1.8%. The “ED50 (anti-thrombotic effect)” value in data set [2] is recorded as 9.1 μg/kg, i.v. In addition, the “time the compound was stable” value in data set [3] (setting [8]) is “more than 10 months”. In addition, the “time the compound was stable” value in data set [3] (setting [9]) was 2.5 months. In data set [4] (dose 2.0 μg/kg i.v.), this molecule showed an Antithrombotic protection of 54%. Also, in data set [5] (0.05% by weight in saline), the “intraocular pressure, 0 hr” value turned out to be 34.33 ± 0.68 mm Hg; the “intraocular pressure, 1 hr” value came out at 24.72 ± 0.47 mm Hg; the “intraocular pressure, 2 hr” value turned out to be 23.86 ± 0.32 mm Hg. Moreover, in data set [5] (0.05%, 10-fold lower concentration than Timolol), the “effect on intraocular pressure (in words)” value was “significantly reduces the intraocular pressure”.

As to `CCOC(=O)[C@@H](NS(=O)(=O)c1ccccc1)C1(SN=O)CCN(C)CC1.Cl` (racemic) [Example 7 (hydrochloride salt), (R,S)-4-(Benzenesulfonylamino-ethoxycarbonyl-methyl)-1-methyl-4-S-nitrosomercapto-piperidinium chloride], the “Mean arterial pressure, Basal” value in data set [1] (anesthetized rat) was 117.9 ± 10.2 mm Hg. For the same molecule, the “Mean arterial pressure, Change” value in data set [1] (rat, in vivo) is “+0.8%”. Further, the “Mean arterial pressure, After 30 min infusion” value in data set [1] (rat, in vivo, iv) is 118.8 ± 11.1 mm Hg. Further, the “ED50 (anti-thrombotic effect)” value in data set [2] was 56.4 μg/kg, i.v. Moreover, the entries for the “time the compound was stable” value in data set [3] (setting [8]) and in data set [3] (setting [9]) were more than 6 months and “at least 4 months”, respectively. In addition, the Antithrombotic protection in data set [4] (dose 10.4 μg/kg i.v.) is reported as 60%.

For the molecule `N[C@@H](CCC(=O)N[C@@H](CSN=O)C(=O)NCC(=O)O)C(=O)O` [GSNO, S-nitrosoglutathione, reference compound], the “Mean arterial pressure, Basal” value in data set [1] (anesthetized rat) was found to be 112.2 ± 6.2 mm Hg. For the same molecule, the “Mean arterial pressure, After 30 min infusion” value in data set [1] (setting [6]) was found to be 98.8 ± 4.1 mm Hg. Moreover, in data set [1] (setting [7]), the “Mean arterial pressure, Change” value is −12.0%. The “ED50 (anti-thrombotic effect)” value in data set [2] is on record as 18.1 μg/kg, i.v. Also, the “time the compound was stable” value in data set [3] (at 25° C., prior art S-nitrothiol compounds, loss of more than 5% of initial purity) stood at 1 days. The Antithrombotic protection in data set [4] (dose 4.0 μg/kg i.v.) is on record as 58%.

As for `CC(C)(C)NC[C@H](O)COc1nsnc1N1CCOCC1` [Timolol, reference compound], in data set [5] (0.5% by weight), the “intraocular pressure, 0 hr” value is recorded as 34.45 ± 0.58 mm Hg; the “intraocular pressure, 1 hr” value came to 24.77 ± 0.26 mm Hg; the “intraocular pressure, 2 hr” value stood at 24.54 ± 0.26 mm Hg.

Regarding `CC(=O)NC(C(=O)O)C1(SN=O)CCN(C)CC1` (stereo not drawn) [example 2 of EP 1157987, N-acetyl-2-amino-2[4-(4-S-nitrosomercapto-1-methylpiperidin)]acetic acid, reference compound], the “Mean arterial pressure, After 30 min infusion” value in data set [1] (setting [6]) was 95.1 ± 2.4 mm Hg. In addition, the “ED50 (anti-thrombotic effect)” value in data set [2] was 4.1 μg/kg, i.v. In data set [4] (dose 1.7 μg/kg i.v.), this molecule gave an Antithrombotic protection of 61%.
